Earlier results in US20220354770A1, “METHOD FOR DYEING KERATINOUS MATERIAL BY MEANS OF A PREMIX OF AMINOSILICONE AND A CHROMOPHORIC COMPOUND” (Henkel AG & Co. KGaA, priority 2019, published 2022).

Conditions: 25° C.

SMILES | solubility in water
Nc1cc(S(=O)(=O)[O-])cc2cc(S(=O)(=O)[O-])c(N=Nc3ccccc3)c(O)c12.[Na+].[Na+] [Acid Red 33, diantrium salt of 5-amino-4-hydroxy-3-(phenylazo)-naphthalene-2,7-disulphonate] | 2500 µg/mL
O=C([O-])C1=NN(c2ccc(S(=O)(=O)[O-])cc2)C(=O)C1N=Nc1ccc(S(=O)(=O)[O-])cc1.[Na+].[Na+].[Na+] (stereo not shown) [Acid Yellow 23, trisodium salt of 4,5-dihydro-5-oxo-1-(4-sulfophenyl)-4-((4-sulfophenyl)azo)-1H-pyrazole-3-carboxylic acid] | highly soluble
O=C([O-])c1c(Cl)c(Cl)c(Cl)c(Cl)c1-c1c2c(Br)cc(=O)c(Br)c-2oc2c(Br)c(O)cc(Br)c12.O=C([O-])c1c(Cl)c(Cl)c(Cl)c(Cl)c1-c1c2c(Br)cc(=O)c(Br)c-2oc2c(Br)c(O)cc(Br)c12.[Na+].[Na+] [Acid Red 92, disodium salt of 3,4,5,6-tetrachloro-2-(1,4,5,8-tetrabromo-6-hydroxy-3-oxoxanthen-9-yl)benzoic acid] | greater than 10 g/L
O=S(=O)([O-])c1ccc(N=Nc2c(O)ccc3ccccc23)cc1.[Na+] [Acid Orange 7, sodium salt of 4-[(2-hydroxy-1-naphthyl)azo]benzene sulphonate] | more than 7 g/L
